Reference: patent publication US4620014A, “2-furylbutyrolactones and methods for using same” (priority 1983, dated 1986)
Like-named read-outs stand apart in the source and are kept apart here.

Assays:
[1] = tested on: human lymphocytes; assay: In vitro lymphocyte stimulation assay in humans; type: cell-based; conditions: PHA and Con-A
Protocol: The purpose of this assay is to challenge lymphocytes in microcultures with one or more polyclonal mitogens at concentrations that will induce mitogenesis within 72 hours of stimulation.
In the mouse model, spleens are removed from different strains of mice and the spleen cells are teased free and suspended in RPMI-1640 tissue culture medium at a concentration of usually 1×10^7 ml. These cells are dispensed at a concentration of 5.0×10^5 cells per microculture well in a 96 well flat bottom 96 well tissue culture plate. All testing of the compounds of this invention or mitogens are done in replicates of 10. The cells are then treated with PHA, Con-A, specific antigens, or buffer only. If in vitro testing is done, varying concentrations of the compounds of this invention or buffer only are added to the cells as well. After treatment with the mitogens and/or compounds of this invention, the cells are incubated for 72 hours. The response of these cells to mitogens and/or the compounds of this invention is assessed using ^14 C-thymidine labeling on the fourth day at a concentration of 0.01 μCi/well. The labeled cells are harvested using a lymphocyte harvestor and placed onto fibrous paper discs. A scintillation cocktail is added to vials contaning the discs and the results are obtained using a LKB-liquid scintillation counter (Model 1216/Rackbeta II). The data is expressed as a ratio of the cpm of the mitogen stimulated group to the control (non-mitogen) treated group=lymphocyte stimulation index (LSI).
The lymphocyte stimulation assay may be performed directly on spleen cells obtained from various strains of mice not treated with the compounds of this invention or on lymphocytes obtained from […]. […] Alternatively, the mice may be treated in vivo with the compounds of this invention by intraperitoneal multi-dose schedules, followed by sacrifice and harvesting spleen lymphocytes. These cells are then tested for their response to polyclonal mitogens or specific antigens used to immunize the mice. […]

[2] = tested on: antibody response to bovine serum albumin (BSA); conditions: for stimulation of antibody response to BSA: day 13
From the text: The effect of the compounds of this invention on the immune response to specific antigens involves immunization of mice with specific anitgens such as bovine serum albumin (BSA) or keyhole limpet hemocyanin (KLH). Following immunization, it is possible to assess the cell-mediated or humoral (antibody) immune response to these antigens by various methods:
(2) Antibody response to soluble antigens such as BSA or KLH can be quantitated using a micro-ELISA solid phase heterogeneous immunoassay. The assay can be designed to quantitate class specific immunoglobulins (i.e., IgG or IgM).
The cut-off for the titer was the highest dilution of mouse serum yielding an O.D.≤0.1 when read on the MR-600 Dynatech micro-ELISA reader.
Mice of the C57BL/6 strain are given i.p. injections of either 50, 100, 200 or 400 mg/kg of Cpd. 1 or buffer for twelve days (days 1-12). An antigen, bovine serum albumin (BSA), is administered intraperitoneally with Freund's Complete Adjuvant (FCA) on days 1, 7 and 14. Blood samples are taken for assay of the antibody response on days 0, 5, 13, and 19.

SMILES: Cc1ccc(C2(O)C(=O)OC3C(O)COC32O)o1.Cc1ccc(C2(O)C(=O)OC3C(O)COC32O)o1.O=C1CCC(=O)O1 (centres unmarked) [Cpd. 1]
- lymphocyte response, very low doses ([1]; 1 and 0.1 μg/ml): markedly increased lymphocyte response
- lymphocyte response, high dose ([1]; 100 and 50 μg/ml): high dose anti-proliferative effect
- Micro-ELISA Titer ([2]; 50 mg/kg i.p., day 5): N/R
- Micro-ELISA Titer ([2]; 50 mg/kg i.p., prebleed): N/R
- antibody titer over the control ([2]; 50 mg/kg, day 19): slight increase
- Micro-ELISA Titer ([2]; 100 mg/kg i.p., day 5): N/R
- Micro-ELISA Titer ([2]; 100 mg/kg i.p., prebleed): N/R
- Micro-ELISA Titer ([2]; 200 mg/kg i.p., day 5): N/R
- Micro-ELISA Titer ([2]; 200 mg/kg i.p., prebleed): N/R
- Micro-ELISA Titer ([2]; 400 mg/kg i.p., day 5): N/R
- Micro-ELISA Titer ([2]; 400 mg/kg i.p., prebleed): N/R
- stimulation of antibody response to BSA ([2]; 50 and 100 mg/kg): slight amount of stimulation
- increase of antibody response to BSA over controls ([2]; 100 and 200 mg/kg, day 19): 16 fold
- stimulation of antibody response to BSA ([2]; 200 and 400 mg/kg): significant (four-fold) stimulation
